# In US7935708B2, “Dihydropyrazolopyrimidinone derivatives” (MSD K.K., priority 2006, dated 2011):
# System: Cdc2 (Cdk1) tyrosine 15 phosphorylation in NCI-H1299 cells
# Experiment: Cdc2 (Cdk1) tyrosine 15-phosphorylation-inhibitory effect in camptothecin-treated NCI-H1299 cells (ELISA)
# Type: cell-based
# Conditions: Homo sapiens, camptothecin 200 nM 16 hours, then test compound with nocodazole 8 hours, read-out: Cdc2-Y15 Phosphorylation-Inhibitory Effect (H1299, + camptothecin) (EC50)
# Description: Pharmaceutical Text 2 (Method of Determining Drug Potency in Cells (Cdc2 (Cdk1) Tyrosine 15-Phosphorylation-Inhibitory Effect))
# Fetal bovine serum (FBS) was obtained from Morgate; media RPMI1640 and DMEM were from Invitrogen; camptothecin was from Sigma; gemcitabine was from Nippon Eli Lilly; nocodazole and protease inhibitor cocktail were from Sigma; rabbit anti-Cdc2 antibody and mouse anti-Cdc2 antibody were from Santa Cruz Biotechnology; rabbit anti-tyrosine 15-phosphorylated Cdc2 antibody and horseradish peroxidase-labeled anti-mouse IgG antibody were from Cell Signaling Technology; sure blue reserve TMB peroxidase substrate was from Kirkegaard and Perry Laboratories.
# Human non-small cell lung cancer cells (NCI-H1299) and human colon cancer cells (WiDr) were obtained from American Type Culture Collection (ATCC).
# c) Method of Effect Determination:
# In the method of using NCI-H1299 cells, the cells were suspended in RPMI1640 containing 10% FBS, and the cell suspension was applied to a 96-well Nunclondelta-processed plastic plate (bought from Nunc), in an amount of 2000 cells/100 μL/well, in which the cells were incubated overnight in 5% CO2-95% air at 37° C. Camptothecin was dissolved in dimethylsulfoxide (DMSO), and diluted with RPMI1640 containing 10% FBS, and then this was applied to the plate on which the cells had been previously sowed, in an amount of 50 μL/well in such a manner that the final concentration of camptothecin could be 200 nM. Then, the cells were incubated for 16 hours at 37° C. in 5% CO2-95% air. The test compound was stepwise diluted with DMSO, then diluted with 4000 nM nocodazole-containing RPMI1640 containing 10% FBS, and applied to the plate on which the camptothecin-treated cells had been sowed, in an amount of 50 μL/well. The cells were incubated for 8 hours at 37° C. in 5% CO2-95% air, then the medium was removed, and a cytolytic buffer was added to the plate in an amount of 100 μL/well, shaken at 4° C. for 2 hours, then frozen at −80° C., and melted to give a cell solution. Cdc2 and tyrosine 15-phosphorylated Cdc2 in the cell solution were determined through enzyme-linked immunosorbent assay (ELISA), and the ratio of tyrosine 15-phosphorylated Cdc2 to Cdc2 was calculated to obtain the 50% phosphorylation-inhibitory concentration of the test compound to the cells (EC50, nM). The cytolytic buffer used herein is an aqueous solution containing 20 mM Hepes (pH 7.5), 150 mM sodium chloride, 1 mM disodium ethylenediaminetetraacetate, 0.1% polyoxyethylene (10) octylphenyl ether, 1% protease inhibitor cocktail, 1 mM dithiothreitol, 2 mM sodium orthovanadate, 10 mM sodium fluoride and 10 mM glycerol diphosphate. Cdc2 was determined through ELISA as follows: A rabbit anti-Cdc2 antibody solution, which had been diluted 200-fold with 50 mM carbonate-bicarbonate buffer (pH 9.6), was applied to a 96-well maxisorpimmuno plate (bought from Nunc), in an amount of 50 μL/well, and statically kept overnight at 4° C. so as to fix the antibody on the plate. Next, this was washed three times with phosphate-buffered saline (PBS), and 5% bovine serum albumin-containing PBS (5% BSA/PBS) was added thereto in an amount of 300 μL/well, and statically kept at room temperature for 2 hours, and then again washed three times with PBS. A mouse anti-Cdc2 antibody solution that had been diluted 100-fold with 0.05% polyoxyethylene sorbitan monolaurate and 1% BSA-containing Tris-HCl-buffered saline (1% BSA/TBS-T) was added to it in an amount of 50 μL/well, and the cell solution was added thereto in an amount of 5 μL/well and statically kept overnight at 4° C. Next, this was washed three times with 0.05% polyoxyethylene sorbitan monolaurate and 0.1% BSA-containing Tris-HCl-buffered saline (0.1% BSA/TBS-T), and then a horseradish peroxidase-labeled anti-mouse IgG antibody solution that had been diluted 2000-fold with 1% BSA/TBS-T was added thereto in an amount of 70 μL/well, and statically kept at room temperature for 3 hours. […]
row,SMILES,EC50
1,"C=CCn1c(=O)c2cnc(Nc3ccc(N4CCN(C)CC4)c(CO)c3)nc2n1-c1ccsc1 [Example 3, 2-allyl-6-{[3-(hydroxymethyl)-4-(4-methylpiperazin-1-yl)phenyl]amino}-1-(3-thienyl)-1,2-dihydro-3H-pyrazolo[3,4-d]pyrimidin-3-one]",61 nM
2,"C=CCn1c(=O)c2cnc(Nc3ccc(N4CCN(C)CC4)cc3)nc2n1-c1cccc(N2CCN(C)C2=O)n1 [Example 148, 2-allyl-1-[6-(3-methyl-2-oxoimidazolidin-1-yl)pyridin-2-yl]-6-{[4-(4-methylpiperazin-1-yl)phenyl]amino}-1,2-dihydro-3H-pyrazolo[3,4-d]pyrimidin-3-one]",79 nM
